Data as given in US7960614B2, “Plant transformation and selection” (Arborgen, LLC, priority 2003, dated 2011).

Tests used:
loblolly cell lines [1] = test: asa2 (pWVC33) selection on Geneticin, 5MT or AMT, PCR check (Example 32); assay type: cell-based, Pinus taeda; conditions: Geneticin 15 mg/L with casein hydrolysate, 5MT or AMT 30 mg/L with AA4
Description: Two loblolly cell lines were prepared for transformation using the method of Example 28, and co-cultivated with Agrobacterium tumefaciens transformed with pWVC33 (FIG. 7) as described in Example 28. Following eradication of Agrobacterium, each cell line was equally divided onto 6 plates each of 5 different selection media containing either casein hydrolysate and Geneticin at 15 mg/L, or amino acid mixture AA4 and either 5-methyltryptophan (5MT) at 30 or 50 mg/L or […] (AMT) at 30 or 50 mg/L. The results are show in FIG. 12. Putatively transformed sublines grow on Geneticin-containing plates and on both selection treatments where 30 mg/L of the methylated tryptophan selective analog was incorporated.

[2] = test system: 10 different loblolly and hybrid pine lines; test: Growth on casein hydrolysate or mixture AA4 with 5-methyltryptophan (FIG. 11); assay type: cell-based, Pinus taeda and hybrid pine; conditions: 0, 3, 10, or 30 mg/L 5-methyltryptophan
Excerpt: In another experiment, 10 different loblolly and hybrid pine lines were used, from eight genetically diverse families. These lines were initiated and cryopreserved as described in Example 26, and were placed into uniform suspension cultures and plated onto the respective media treatments as described in Example 26. Media for the experiment comprised DCR2 maintenance media containing either 0.5 g/L casein hydrolysate, 0.5 g/L of the derived mixture AA4 having the proportions shown in Table 24, or lacking both casein and the amino acid mixtures, and each of these treatments were provided with each of 0, 3, 10, or 30 mg/L treatments of 5-methyltryptophan (5MT). The vertical axis is the total weight increase in grams after the respective period.

[3] = test system: 13 loblolly and hybrid pine lines; test: Growth on synthetic casein hydrolysate mixtures with Ally (FIG. 10); assay type: cell-based, Pinus taeda and hybrid pine; conditions: media with amino acid mixture in which branched chain amino acids are absent; Ally 0, 10, 30, or 50 mM
Description: The synthetic mixtures were tested in 13 loblolly and hybrid pine lines from 7 genetically diverse families. These lines were initiated and cryopreserved as described in Example 26, and were placed into uniform suspension cultures and plated onto the respective media treatments as described in Example 27. Media for the experiment comprised DCR2 maintenance media containing either 0.5 g/L casein hydrolysate, 0.5 g/L of one of the derived mixtures having the proportions shown in Table 24, or lacking both casein and the amino acid mixtures, and each of these treatments were provided with each of 0, 10, 30, or 50 mM treatments of the herbicide Ally® (commercially available from Dupont™).

loblolly cell lines [4] = test: pWVC23 transformants selected on Ally, checked on Geneticin and by PCR (Example 30); assay type: cell-based, Pinus taeda; conditions: Ally at either 50 or 100 nM
Description: Two loblolly cell lines were prepared for transformation using the same methods of Example 28, and co-cultivated with Agrobacterium tumefaciens transformed with pWVC23(FIG. 3), also as described in Example 28. Following eradication of Agrobacterium, each cell line was equally divided onto selection medium containing either Geneticin at 15 mg/L or Ally at either 50 or 100 nM. After putatively transformed sublines were grown to a sufficient size, nine sublines grown on Ally-containing media were transferred to Geneticin-containing media to check transformation status rapidly before PCR. 100% of these lines are able to grow on Geneticin-containing media. Five of these lines were then checked with PCR using the six primer pairs described in Example 28. 100% of these lines were confirmed postive transformants by PCR.

loblolly pine cell lines = test: als/Ally selection on medium without casein hydrolysate, PCR verification (Example 28); assay type: cell-based, Pinus taeda; conditions: selection on 50 nM or 100 nm Ally, no casein hydrolysate; seven sublines tested by PCR
Excerpt: In this example, five loblolly pine cell lines from four elite families were transformed with plasmids containing the als selectable marker, and selection was done on a sulfonylurea-containing selection medium modified to exclude casein hydrolysate. The five pine cell lines were initiated as described in Example 26, except that one of the five lines was an elite loblolly cross grown in an International Paper seed orchard in Georgia. The lines were cryopreserved, retrieved, and cultured as uniform suspensions as described in Example 26.
To prepare for gene transfer, polyester membrane supports were sterilized by autoclaving and placed in separate sterile Buchner funnels, and for each of six replicate plates per cell line, one to three milliliters of pine embryogenic suspension was pipetted onto each support such that the embryogenic tissue was evenly distributed. The liquid medium was suctioned from the tissues and each support bearing the embryogenic tissue was placed on gelled DCR3 preparation medium for Agrobacterium inoculation according to the methods described in U.S. Patent Publication No. 20020100083. […]

## Cc1ccc2[nH]cc(C[C@H](N)C(=O)O)c2c1 [5MT30, 5-methyltryptophan]
Loblolly cell lines [1]
  False positive Frequency: 0.13
Loblolly cell lines [1]; of 12, 8, 22 lines PCR tested
  PCR confirmed positive (number of lines): 7
[2]
  reduction in growth, FIG. 11: only in the absence of tryptophan is it possible to obtain satisfactory reduction in growth

## COC(=O)c1ccccc1S(=O)(=O)NC(=O)Nc1nc(C)nc(OC)n1 [Ally]
[3]
  growth of cells, FIG. 10: growth is retarded or stopped to a significant degree
Loblolly cell lines [4]; five lines checked
  lines confirmed positive transformants by PCR: 100%
Loblolly cell lines [4]; nine sublines
  Ally-selected sublines able to grow on Geneticin-containing media: 100%
Loblolly pine cell lines
  false positive rate: 14%
